Source: patent US8044089B2, “3-3-di-substituted-oxindoles as inhibitors of translation initiation” (President and Fellows of Harvard College, priority 2004, dated 2011)
“Also recorded” adds a separate entry of the source. Like-named read-outs stand apart in the source and are kept apart here.

How the values were obtained:
[1] = Plasma levels after oral administration (LC-MS); assay type: in vivo; conditions: mouse, DBA/2J mice
Method: (§1) Ternary complex assay was 8-fold over DMSO at 20 μM, and cell growth was inhibited at <1 μM. The plasma levels for this in mice were estimated using liquid chromatography and mass spectrometry (LC-MS). Compound 1430 was orally administered at 160 mg/kg, 240 mg/kg, and 320 mg/kg to DBA/2J mice and the plasma concentration was measured at three time points, one hour, three hours, and six hours, and is set forth in Table 15. The plasma was isolated from the mice by heart-lung puncture and the samples were processed and analyzed by LC-MS. The concentrations at each time and dose are in nmoles/mL of plasma (n.d.=not detected; X=not determined).

[2] = test system: A549 lung cancer cells; experiment: SRB growth inhibition of A549 lung cancer cells; assay type: cell-based, human
[3] = test system: ternary complex in transgenic KLN cells; experiment: Ternary complex assay; assay type: cell-based
Method: FIGS. 3A-3C depict compound 1181 activity. (A) depicts the drug induced phosphorylation of eIF2α protein in control (lane 1), positive control (lane 2) and 1181 (lane 3) measured using Western blot analysis.
as §1

[4] = test system: eIF2α; experiment: eIF2α phosphorylation measured by Western blot; assay type: cell-based; conditions: for eIF2α-P (phosphorylation of eIF2α measured by Western blot): unit or reference not given
Summary of the method: (§2)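 Ca2+ release scored in FURA-2AM loaded cells as "+" (release) or "+/−" (inconclusive); some compounds also tested with ER-targeted FRET Ca2+ sensors. Ca2+-depleting compounds were then tested for eIF2α phosphorylation by Western blot with phospho-specific anti-eIF2α antibody.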

[5] = test system: intracellular Ca^2+ stores; experiment: Ca2+ release from intracellular stores (FURA-2AM loaded cells); assay type: cell-based; design: key to Ca^2+ (Ca^2+ release from intracellular stores): a “+” denotes release; a “+/−” denotes inconclusive
Summary of the method: as §2

[6] = test system: endoplasmic reticulum (ER) Ca^2+; experiment: Depletion of endoplasmic reticulum Ca2+ (ER-targeted cameleon proteins, FRET); assay type: cell-based; conditions: ER-targeted Ca^2+-sensitive proteins
Method: FIGS. 2A-2B depict compound 1181 activity. […] These proteins emit light and the Ca^2+ content is measured by fluorescent resonance energy transfer (FRET).
Without intending to be bound by theory, the mechanism of action of translation initiation inhibitors is set forth in FIG. 1, and includes the depletion (complete or partial depletion) of intracellular calcium (Ca^2+) stores and phosphorylation of eIF2α. Compounds synthesized using the approaches described herein were screened for their ability to partially deplete intracellular Ca^2+ stores using FURA-2AM loaded cells (Benzaquen et al. (1995) Nature Medicine, 1:534, incorporated herein by reference in its entirety for all purposes). A limited subset of compounds were further screened for their ability to deplete endoplasmic reticulum (ER) Ca^2+. The Ca^2+ content of the ER was monitored using ER-targeted, Ca^2+ sensitive, recombinant proteins. These recombinant proteins emitted light by fluorescent resonance energy transfer (FRET) as a function of the Ca^2+ content of the medium. […] Compounds that depleted Ca^2+ were further evaluated for their ability to phosphorylate eIF2α. eIF2α phosphorylation was measured by Western blot analysis using the phospho-specific anti-eIF2α antibody, as previously described (Aktas et al. (1998) Proc. Natl. Acad. Sci. USA, 95:8280, incorporated herein by reference in its entirety for all purposes).

[7] = test system: squamous cell carcinoma (KLN) tumor; experiment: Squamous cell carcinoma (KLN) tumor mass in mice; assay type: in vivo; conditions: DBA/2J mice, oral, 320 mg/kg/day, six weeks
[8] = Homo sapiens, A549 lung cancer cells, unit inferred, read-out: SRB (IC50 for growth inhibition of A549 lung cancer cells)
[9] = A549 lung cancer cells, unit inferred, read-out: SRB (IC50 for growth inhibition of A549 lung cancer cells)

Cc1cc(C2(c3ccccc3)C(=O)Nc3ccccc32)c(NS(=O)(=O)c2ccc(C(C)(C)C)cc2)cc1O (stereo not shown) [Compound 1430, 4-tert-butyl-N-[5-hydroxy-4-methyl-2-(2-oxo-3-phenyl-2,3-dihydro-1H-indol-3-yl)-phenyl]-benzenesulfonamide]
concentration at 1 h ([1]; oral 160 mg/kg): 5.7 µM
concentration at 3 h ([1]; oral 160 mg/kg): 3.8 µM
concentration at 1 h ([1]; oral 240 mg/kg): 6.8 µM
concentration at 3 h ([1]; oral 240 mg/kg): 4 µM
concentration at 1 h ([1]; oral 320 mg/kg): 14 µM
concentration at 3 h ([1]; oral 320 mg/kg): 3.8 µM
concentration at 6 h ([1]; oral 320 mg/kg, 6 hours): 2.8 µM
IC50 ([2]; Homo sapiens, A549, read-out: cell growth was inhibited at): < 1000 nM
IC50 [2, 8]: 900 nM
Ternary complex assay over DMSO ([3]; at 20 μM, over DMSO): 8 fold
eIF2α-P (phosphorylation of eIF2α measured by Western blot) [4]: 4.8
increase in eIF2α phosphorylation over DMSO ([4]; at 5 μM, over DMSO): 5 fold
Ca^2+ (Ca^2+ release from intracellular stores) [5]: +

CC(C)(C)c1ccc(O)c(C2(c3ccccc3)C(=O)Nc3ccccc32)c1 (stereo not shown) [Compound 1181, 3-(5-tert-butyl-2-hydroxy-phenyl)-3-phenyl-1,3-dihydro-indol-2-one]
growth inhibition of cancer cells (in words) ([2]; A549): inhibited growth of a cancer cell line (A549)
IC50 [2, 8]: 3000 nM
depletion of ER Ca^2+ (in words) [6]: depleted ER-Ca^2+; also recorded: depletion of endoplasmic reticulum (ER) Ca^2+
depletion of ternary complex (in words) ([3]; transgenic KLN cells): depletion of ternary complex
squamous cell carcinoma (KLN) tumor mass [7]: decreased squamous cell carcinoma tumor mass in mice; also recorded: decrease in squamous cell carcinoma (KLN) tumor mass
eIF2α phosphorylation (in words) [4]: phosphorylated eIF2α
eIF2α-P (phosphorylation of eIF2α measured by Western blot) [4]: 5
Ca^2+ (Ca^2+ release from intracellular stores) [5]: +
Ca^2+ release / depletion of intracellular Ca^2+ (in words) [5]: calcium (Ca^2+) release in a dose dependent manner

C=CCN1C(=O)C(c2ccccc2)(c2cc(C(C)(C)C)ccc2O)c2ccccc21 (stereo not shown) [Compound 1236]
IC50 [2, 9]: 3000 nM
eIF2α-P (phosphorylation of eIF2α measured by Western blot) [4]: 2.23
Ca^2+ (Ca^2+ release from intracellular stores) [5]: +/−

O=C1Nc2ccc(F)cc2C1(c1ccccc1)c1ccccc1 [Compound 1350]
IC50 [2, 9]: 9000 nM
eIF2α-P (phosphorylation of eIF2α measured by Western blot) [4]: 1.16
Ca^2+ (Ca^2+ release from intracellular stores) [5]: +
